According to patent publication US8461305B2, “L-fucose α1→6 specific lectin” (J-Oil Mills, Inc., priority 2008, dated 2013):

Assay: frontal affinity chromatography (FAC), association constant to PA sugar chains without L-fucose
Assay type: binding
Conditions: for association constant Ka: 25 degrees C.
Description: The following section will describe a method of calculating an association constant by frontal affinity chromatography (FAC). This method is based on the following principle. […] Then, the elution front end (front) is observed immediately. When there is an affinity with lectin, the elution of the sugar chain is delayed.
The preparation of a lectin column used in the apparatus is performed in the method as described below. 1. Purified lectin is dissolved in 0.1 to 0.2M of NaHCO3 buffer solution (pH 8.3 to 8.5). 2. The lectin is immobilized, via a lectin primary amino group, a carrier such as NHS activated sepharose. 3. Then, the lectin is blocked by Tris buffer solution including primary amine or ethanolamine for example. 4. Lectin-sepharose is suspended in 10 mM Tris buffer, including 0.8% of NaCl (pH 7.4, TBS). Then, lectin immobilized resin is filled in a miniature column (φ2 mm×10 mm, 31.4 μl). 5. The miniature column in which the lectin immobilized resin is filled is protected by a holder and the lectin column is connected to an FAC automatic analysis apparatus (FAC-1, SHIMADZU CORPORATION).
Then, the elution of the PA sugar chain from the column is detected by a fluorescence detector (excitation wavelength/fluorescence wavelength: 310 nm/380 nm).
Based on the detection data, by using the elution front end (Vo) of the sugar chain (PA rhamnose) not interacting with lectin as a reference, the delay (V−Vo) of the elution front end (V) of a sugar chain interacting with lectin is calculated as an interaction strength. Then, based on the following FAC criteria expressions, the association constant (Ka) between the sugar chain and lectin is calculated based on V−Vo and Bt. If the interaction strength (V−Vo value) and the association constant are higher, a higher affinity is caused between lectin and an L-fucose α1→6 sugar chain.
[In the formula, A means substance used for the elution, Ao means the initial concentration of the substance A, B means a immobilized ligand, V means the elution volume, Vo means the elution front end volume of the substance not interacting with the immobilized ligand B at all, Bt means an effective ligand amount, Kd means a dissociation constant (an inverse of the association constant)].
Pyridylaminated (PA) sugar chains shown in FIG. 1 and FIG. 2 were used to frontal affinity chromatography (FAC) analysis. PA sugars were purchased from TAKARA BIO INC., SEIKAGAKU BIOBUSINESS CORPORATION, and Masuda Chemical Industries co., LTD. PA sugar were also obtained by pyridylaminating, by GlycoTAG®(TAKARA BIO INC.), an unlabeled sugar chain or a sugar chain obtained by subjecting a sugar chain to enzyme digestion for example.
Lectin was dissolved in 0.2 M NaHCO3 buffer solution (pH 8.3) including 0.5 M NaCl and coupled to the NHS-activated sepharose (GE Healthcare Bioscience) by following the manufacturer's instructions. Then, lectin immobilized sepharose was suspended in 10 mM Tris buffer (pH 7.4, TBS) including […] and the resultant matter was filled in a miniature column (φ2 mm×10 mm, 31.4 μl).
Frontal affinity chromatography was performed using FAC automatic analysis apparatus (FAC-1, SHIMADZU CORPORATION). In particular, the above-prepared lectin column was inserted to a stainless steel holder and the holder was connected to FAC-1 apparatus. The flow rate and the column temperature were maintained at 0.125 ml/min and 25 degrees C., respectively. After the miniature column was equilibrated by the TBS, an excessive volume (0.5 ml to 4 ml) of a PA sugar chain (3.75 nM or 7.5 nM) was continuously inputted to the column using an automatic sampling apparatus.
The fluorescent strength of the eluate of the PA sugar (excitation wavelength of 310 nm and fluorescence wavelength of 380 nm) was monitored to measure the interaction strength [a difference of the front end eluate to the standard oligosaccharide (PA rhamnose): V−V0]. […]

Pholiota terrestris lectin [PTL, novel L-fucose α1→6 specific lectin purified from the mushroom Pholiota terrestris]
not bound: binding to sugar chain not having L-fucose (FAC)
<1000 M⁻¹: association constant Ka (Sugar chain No. 001) | association constant Ka (Sugar chain No. 002) | association constant Ka (Sugar chain No. 003) | association constant Ka (Sugar chain No. 004) | association constant Ka (Sugar chain No. 005) | association constant Ka (Sugar chain No. 006) | association constant Ka (Sugar chain No. 007) | association constant Ka (Sugar chain No. 008) | association constant Ka (Sugar chain No. 009) | association constant Ka (Sugar chain No. 010) | association constant Ka (Sugar chain No. 011) | association constant Ka (Sugar chain No. 012) | association constant Ka (Sugar chain No. 013) | association constant Ka (Sugar chain No. 014) | association constant Ka (Sugar chain No. 101) | association constant Ka (Sugar chain No. 103) | association constant Ka (Sugar chain No. 104) | association constant Ka (Sugar chain No. 105) | association constant Ka (Sugar chain No. 107) | association constant Ka (Sugar chain No. 108) | association constant Ka (Sugar chain No. 301) | association constant Ka (Sugar chain No. 304) | association constant Ka (Sugar chain No. 305) | association constant Ka (Sugar chain No. 307) | association constant Ka (Sugar chain No. 308) | association constant Ka (Sugar chain No. 313) | association constant Ka (Sugar chain No. 314) | association constant Ka (Sugar chain No. 323) | association constant Ka (Sugar chain No. 501) | association constant Ka (Sugar chain No. 502) | association constant Ka (Sugar chain No. 503) | association constant Ka (Sugar chain No. 504) | association constant Ka (Sugar chain No. 701) | association constant Ka (Sugar chain No. 702) | association constant Ka (Sugar chain No. 703) | association constant Ka (Sugar chain No. 704) | association constant Ka (Sugar chain No. 705) | association constant Ka (Sugar chain No. 706) | association constant Ka (Sugar chain No. 707) | association constant Ka (Sugar chain No. 708) | association constant Ka (Sugar chain No. 709) | association constant Ka (Sugar chain No. 710) | association constant Ka (Sugar chain No. 711) | association constant Ka (Sugar chain No. 712) | association constant Ka (Sugar chain No. 713) | association constant Ka (Sugar chain No. 715) | association constant Ka (Sugar chain No. 716) | association constant Ka (Sugar chain No. 717) | association constant Ka (Sugar chain No. 724) | association constant Ka (Sugar chain No. 725) | association constant Ka (Sugar chain No. 728 (as listed in Table 7)) | association constant Ka (Sugar chain No. 732) | association constant Ka (Sugar chain No. 733) | association constant Ka (Sugar chain No. 734) | association constant Ka (Sugar chain No. 735) | association constant Ka (Sugar chain No. 736) | association constant Ka (Sugar chain No. 737) | association constant Ka (Sugar chain No. 738) | association constant Ka (Sugar chain No. 901) | association constant Ka (Sugar chain No. 902) | association constant Ka (Sugar chain No. 903) | association constant Ka (Sugar chain No. 905) | association constant Ka (Sugar chain No. 906) | association constant Ka (Sugar chain No. 907)
